The structures appear in SMILES notation. A value given as a limit tells only on which side of the number the result lay.

The nature of this series: Solubility determinations in SIF buffers (FaSSIF, FeSSIF, FaSSGF). Type of series: physicochemical. The settings on record: for XRPD (dried) / XRPD (wet): solid residue. The protocol:
At this stage ca. 1 g of each front-runner salt form was prepared. Salt forms that offered significant solubility and stability advantages over the non-ionized API were prioritized. […] Scale Up
The solubility of the salts below was determined in FaSSIF, FeSSIF and FaSSGF by reference to the calibration curve of amorphous compound 1.
Separate portions of compound 1 were weighed out into aluminum boats and were charged to the relevant volumetric flasks. Solutions were made to volume with 1 to 1 (v/v) acetonitrile/purified water to give calibrants of known API concentrations and analyzed by HPLC, suitable to determine the concentration of compound 1 free base in the SIF buffer solubility study.
Each sample (150 mg) was suspended in the relevant SIF buffer (5.0 ml), to give a concentration of 30 mg/ml and maintain at 37° C. for 24 h. The pH was adjusted using 1 M HCl or 1 M NaOH, to ensure that the suspension remains in range.
Sample (1 ml) of the well-stirred representative suspensions was obtained at 1 h, 3 h, 6 h and 24 h and the pH was recorded. The pH of the bulk suspension was re-adjusted when necessary. The obtained sample from each vial was centrifuged, and the supernatant was analysed by HPLC (note, the analyte was diluted, when outside of the calibration range); XRPD analysis was performed on the wet sample pellet for evidence of form change, as well as on the oven-dried pellet (undervacuum at 40° C.).

Where [1] appears, read: FaSSGF (ph 1.6), t = 1 h@37° C.
The mark [2] stands for this setting: FaSSGF (ph 1.6), t = 3 h@37° C.
The mark [3] stands for this setting: FaSSGF (ph 1.6), t = 6 h@37° C.
[4] abbreviates: FaSSGF (ph 1.6), t = 24 h @37° C.
[5] abbreviates: FaSSIF (ph 6.5), t = 1 h@37° C.
Where [6] appears, read: FaSSIF (ph 6.5), t = 3 h@37° C.
Setting [7] is: FaSSIF (ph 6.5), t = 6 h@37° C.
Setting [8] is: FaSSIF (ph 6.5), t = 24 h @37° C.
Where [9] appears, read: FeSSIF (ph 5.0), t = 1 h@37° C.
The mark [10] stands for this setting: FeSSIF (ph 5.0), t = 3 h@37° C.
Setting [11] is: FeSSIF (ph 5.0), t = 6 h@37° C.
Setting [12] is: FeSSIF (ph 5.0), t = 24 h @37° C.

On to `COc1ccc2c(ccn2C[C@@H](C)N(C)C)c1.O=C(O)c1ccccc1` [Compound 1 · Benzoate], for which the Solubility (commonly the concentration that dissolves in the medium under given conditions) by setting is: under setting [1], 28.74 mg/mL; under setting [2], 26.85 mg/mL; under setting [3], 26.33 mg/mL; under setting [4], 25.59 mg/mL; under setting [5], greater than 30 mg/mL; under setting [6], greater than 30 mg/mL. Also, the Solubility was greater than 30 mg/mL under setting [7]; greater than 30 mg/mL under setting [8]; greater than 30 mg/mL under setting [9]; greater than 30 mg/mL under setting [10]; greater than 30 mg/mL under setting [11]; greater than 30 mg/mL under setting [12]. Besides, the “XRPD (dried)” value is, setting by setting: under setting [1], “Benzoic acid”; under setting [2], “Benzoic acid”; under setting [3], “Benzoic”; under setting [4], “Benzoic”. For the same compound, the “XRPD (wet)” value is given as “Benzoic acid” under setting [1], “Benzoic acid” under setting [2], “Benzoic acid” under setting [3] and “Benzoic” under setting [4].
In the case of `COc1ccc2c(ccn2C[C@@H](C)N(C)C)c1.O=C(O)/C=C/C(=O)O` [Compound 1 · Fumarate], the Solubility is greater than 30 mg/mL under setting [1]; greater than 30 mg/mL under setting [2]; greater than 30 mg/mL under setting [3]; greater than 30 mg/mL under setting [4]; greater than 30 mg/mL under setting [5]; greater than 30 mg/mL under setting [6]. In addition, the Solubility under setting [7] is greater than 30 mg/mL; the Solubility under setting [8] is greater than 30 mg/mL; the Solubility under setting [9] is greater than 30 mg/mL; the Solubility under setting [10] was greater than 30 mg/mL; the Solubility under setting [11] is greater than 30 mg/mL; the Solubility under setting [12] was greater than 30 mg/mL.
In the case of `COc1ccc2c(ccn2C[C@@H](C)N(C)C)c1.Cl` [Compound 1 · HCl], the Solubility is greater than 30 mg/mL under setting [1]; greater than 30 mg/mL under setting [2]; greater than 30 mg/mL under setting [3]; greater than 30 mg/mL under setting [4]; greater than 30 mg/mL under setting [5]; greater than 30 mg/mL under setting [6]. The Solubility by setting is: under setting [7], greater than 30 mg/mL; under setting [8], greater than 30 mg/mL; under setting [9], greater than 30 mg/mL; under setting [10], greater than 30 mg/mL; under setting [11], greater than 30 mg/mL; under setting [12], greater than 30 mg/mL.
The compound `COc1ccc2c(ccn2C[C@@H](C)N(C)C)c1.O=C(O)/C=C\C(=O)O` [Compound 1 · Maleate] had a Solubility under setting [1] greater than 30 mg/mL; a Solubility under setting [2] greater than 30 mg/mL; a Solubility under setting [3] greater than 30 mg/mL; a Solubility under setting [4] greater than 30 mg/mL; a Solubility under setting [5] greater than 30 mg/mL; a Solubility under setting [6] greater than 30 mg/mL. The Solubility by setting is: under setting [7], greater than 30 mg/mL; under setting [8], greater than 30 mg/mL; under setting [9], greater than 30 mg/mL; under setting [10], greater than 30 mg/mL; under setting [11], greater than 30 mg/mL; under setting [12], greater than 30 mg/mL.
With `COc1ccc2c(ccn2C[C@@H](C)N(C)C)c1.O=C(O)c1ccccc1` [Compound 1.Benzoate], under “input salt before FaSSGF”, the “HPLC peak RRT 1.00 (Compound 1)” value worked out at 99.64, the “HPLC peak RRT 1.09” value was 0.03, the “HPLC peak RRT 1.17” value is given as 0.03 and the “HPLC peak RRT 1.18” value is listed as 0.10. For the same compound, under “input salt before FaSSGF”, the “HPLC peak RRT 1.19” value worked out at 0.02, the “HPLC peak RRT 1.24” value turned out to be 0.06, the “HPLC peak RRT 1.28” value is given as 0.01 and the “HPLC peak RRT 1.33” value was determined as 0.10. Besides, where the note is “t = 1 h in FaSSGF”, the “HPLC peak RRT 0.90” value is reported as 0.07, the “HPLC peak RRT 0.92” value stood at 0.05, the “HPLC peak RRT 1.00 (Compound 1)” value came out at 99.28 and the “HPLC peak RRT 1.07” value amounted to 0.04. In addition, where the note is “t = 1 h in FaSSGF”, the “HPLC peak RRT 1.09” value is listed as 0.06, the “HPLC peak RRT 1.17” value was found to be 0.04, the “HPLC peak RRT 1.19” value came out at 0.15 and the “HPLC peak RRT 1.27” value was determined as 0.11. Further, under “t = 1 h in FaSSGF”, the “HPLC peak RRT 1.28” value turned out to be 0.05 and the “HPLC peak RRT 1.33” value worked out at 0.15. Under “t = 3 h in FaSSGF”, the “HPLC peak RRT 0.97” value came out at 0.04, the “HPLC peak RRT 1.00 (Compound 1)” value came to 99.62, the “HPLC peak RRT 1.07” value is reported as 0.03 and the “HPLC peak RRT 1.17” value worked out at 0.15. The “HPLC peak RRT 1.33” value (t = 3 h in FaSSGF) is recorded as 0.16. Further, under “t = 6 h in FaSSGF”, the “HPLC peak RRT 1.00 (Compound 1)” value was 99.61, the “HPLC peak RRT 1.17” value came out at 0.12, the “HPLC peak RRT 1.24” value was 0.08 and the “HPLC peak RRT 1.25” value worked out at 0.04. Also, for the setting “t = 6 h in FaSSGF”, the “HPLC peak RRT 1.32” value is recorded as 0.06 and the “HPLC peak RRT 1.33” value came out at 0.09. For the setting “t = 24 h in FaSSGF”, the “HPLC peak RRT 1.00 (Compound 1)” value was found to be 99.73, the “HPLC peak RRT 1.17” value came to 0.15, the “HPLC peak RRT 1.32” value came to 0.07 and the “HPLC peak RRT 1.33” value was 0.06.

For the origin of these results see patent US12319652B2, “Salts and solid forms of (R)-1-(5-methoxy-1H-indol-1-yl)-N,N-dimethylpropan-2-amine” (priority 2021, dated 2025).
